# Measurements reported in patent US8592581B2, “Trisubstituted purine derivatives” (Cyclacel Limited, priority 2007, dated 2013).
# pIC50: −log10 of the molar value.
# Columns and labels:
# various cell lines = test: Alamar blue cytotoxicity assay, average over the cell lines of Table 8; format: cell-based
# Experimental: (§1) In order to determine the cellular potency of the compounds, the cytotoxicity of each compound was determined against a range of cell lines. Standard cytotoxicity methods were performed as follows: cells were seeded in 96-well plates appropriately for their doubling time (2-5000 cells per well) in RPMI or DMEM media containing 10% FCS and incubated overnight at 37° C., 5% CO2. The media was removed and 100 μl fresh media containing increasing concentrations of appropriate compound was added and the cells incubated for 72 hours at 37° C., 5% CO2. A 10% stock of alamar blue (Roche, Lewes, United Kingdom) was prepared in medium and 100 μl added to the cells which were incubated for 2 hours. Absorbance was measured on the Wallac Victor 2 1420 multi-label counter at 544-595 nm.
# CDK2/cyclin A = CDK2/cyclin A (Homo sapiens (Human), UniProt P24941); test: In-vitro recombinant kinase assay CDK2/cyclin A; format: biochemical; conditions: Table 2; average of duplicate points; read-out: CDK2/Cyclin A Average IC50
# Experimental: (§2) To evaluate the in-vitro kinase potency of the compounds, they were screened against CDK 2 and CDK9. Kinase assays were performed in 96-well plates using recombinant CDK/cyclins generated at Cyclacel. Ltd Dundee, UK. CDK2 and CDK9 assays were performed in a total volume of 25 μl in assay buffer (25 mM b-glycerophosphate, 20 mM MOPS, 5 mM EGTA, 1 mM DTT and 1 mM NaVO3, pH 7.4), into which were added 2-4 μg of active enzyme with appropriate substrates (purified histone H1 for CDK2/cyclin E, and CDK2/cyclin A, biotinyl-Ahx-(YSPTSPS)4 for CDK9/cyclin T1). […] CDK2 reactions were stopped by addition of 25 μl of 75 mM phosphoric acid, followed by filtration through P81 filterplates (Whatman Polyfiltronics, Kent, UK). For CDK9, the reaction was stopped by addition of 25 μl of 75 mM phosphoric acid, then 5 μl of 10 mg/ml avidin was added to each well and further incubated for 2 min followed by filtration as per CDK2 assay. After washing 3 times with 75 mM orthophosphoric acid, plates were dried, scintillant added and incorporated radioactivity measured in a scintillation counter (TopCount, Packard Instruments, Pangbourne, Berks, UK). Compounds for kinase assay were made up as 10 mM stocks in DMSO and diluted into 10% DMSO in assay buffer.
# as §2
# NCI-H460 = test: Alamar blue cytotoxicity assay NCI-H460; format: cell-based; conditions: Homo sapiens, 72 hours, read-out: cellular cytotoxicity IC50 NCI-H460
# Experimental: as §1
# Mcl-1 = Mcl-1 downregulation in H460 cells by Western blotting; format: cell-based
# Experimental: The media was removed and the adherent cells washed with 5 ml PBS. […] Proteins were transferred to nitrocellulose membranes (Schleicher & Schuell, Dassel, Germany) using wet electrophoretic transfer. Membranes were stained with Ponceau S to confirm equal loading before blocking in 5% nonfat milk in PBS with 0.05% Tween 20 (PBSTM) for 2 hours. Membranes were incubated overnight at 4° C. with primary antibody (rabbit polyclonal antibody to Mcl-1, Santa Cruz), diluted 1:1000 in PBSTM. Membranes were washed 2×5 minute followed by 2×10 minute in PBS and 0.05% Tween 20 (PBST) and incubated for 1 hour in PBSTM containing horseradish peroxidase-conjugated secondary antibody. Membranes were washed as before and incubated with enhanced chemiluminescence solution (Amersham) and exposed to X-ray film (Amersham).
# In a second experiment the effect of additional compounds on Mcl-1 levels was investigated.
# CDK 2 and CDK9 = test: In-vitro kinase potency screen against CDK 2 and CDK9 (statements in words); format: biochemical; conditions: Table 7 (not given): [A1], [A2], [A3] and [1]
# Experimental: To evaluate the in-vitro kinase potency of the compounds, they were screened against CDK 2 and CDK9. Kinase assays were performed in 96-well plates using recombinant CDK/cyclins generated at Cyclacel. Ltd Dundee, UK. CDK2 and CDK9 assays were performed in a total volume of 25 μl in assay buffer (25 mM b-glycerophosphate, 20 mM MOPS, 5 mM EGTA, 1 mM DTT and 1 mM NaVO3, pH 7.4), into which were added 2-4 μg of active enzyme with appropriate substrates (purified histone H1 for CDK2/cyclin E, and CDK2/cyclin A, biotinyl-Ahx-(YSPTSPS)4 for CDK9/cyclin T1). The reaction was initiated by addition of Mg/ATP mix (15 mM MgCl2+100 μM ATP with 30-50 kBq per well of [—^32P]-ATP) and mixtures incubated for 15 min (CDK2/cyclin E), 30 min (CDK2/cyclin A) or 45 min (CDK9/cyclin T1) as required, at 30° C. […] After washing 3 times with 75 mM orthophosphoric acid, plates were dried, scintillant added and incorporated radioactivity measured in a scintillation counter (TopCount, Packard Instruments, Pangbourne, Berks, UK). […]
# To evaluate the in-vitro kinase potency of the compounds, they were screened against CDK 2 and CDK9. […] After washing 3 times with 75 mM orthophosphoric acid, plates were dried, scintillant added and incorporated radioactivity measured in a scintillation counter (TopCount, Packard Instruments, Pangbourne, Berks, UK). […]
smiles,measurement,setting,value
CC[C@H](Nc1nc(NCc2cnc(C)cc2C)c2ncn(C(C)C)c2n1)[C@@H](C)O [Compound [1]],cytotoxic potency compared with prior art compounds (in words),"various cell lines; 21 cell lines, versus [A1], [A2] or [A3]",significantly more potent
same,pIC50,"various cell lines; average over the cell lines of Table 8, read-out: cellular cytotoxicity IC50 Ave",6.46
same,pIC50,CDK2/cyclin A,7.05
same,pIC50,NCI-H460,6.30
same,downregulating the levels of Mcl-1 (in words),"Mcl-1; H460 cells, 0.5, 1.5, 4.5 and 13.5 μM, 5 hrs",most effective compound from this group
same,concentration at which significant effects on Mcl-1 levels are observed,"Mcl-1; H460 cells, 24 hr",1.5 µM
same,kinase inhibitor potency ranking (in words),CDK 2 and CDK9,most potent kinase inhibitors
